Patent US6046239A, “Anthranilic acid analogs” (American Home Products Corporation, priority 1998, dated 2000)

Tests used:
[1] = test system: swelling induced chloride channel current; assay: Chloride channel blockade, swelling induced chloride current in bladder cells; type: cell-based, guinea pig; details: bladder cell, ICl type swelling (210 mOsm), 60 mV
Excerpt: Normal human bronchial epithelial cells (NHBE) were commercially available from Clonetics Corporation (San Diego, Calif.) and bladder cells were isolated from rat bladder.
The normal external solution contained (in mM): N-methyl d-Glucamine chloride (NMDGCl). 140, MgCl2 2, CaCl2 2 and 4-(2-hydroxyethyl)-1-piperazine ethanesulfonic acid (HEPES) 10. The normal pipette solution contained (in mM): NMDGCl. 125, HEPES 10, MgCl2 2, ethylenebis(oxonitrilo)tetaaacetate (EGTA) 2, and ATPMg 5, the pH adjusted to 7.3 with TRIS. To identify the leak conductance from depolarization, internal Cl ion concentration was reduced to 40 mM using glutamic acid (ECl approximately -31 mV according Nernst equation). The osmolarity for standard external solution was about 280 mOsm. Hypotonic solutions were obtained by diluting the normal external solution with distilled water.
The whole cell voltage clamp recording techniques were utilized to record membrane ionic currents. The volume of the recording chamber was 1 ml and the rate of superfusion was 4 ml/min. Membrane currents were recorded using an Axopatch 200A Patch Clamp Amplifier (Axon Instruments, Inc., Foster City, Calif.). Under voltage clamp conditions, the cells were stimulated at 0.2 Hz to be sure channels were completely recovered between two voltage steps. […]

[2] = test system: Isolated Rat Bladder Strips; assay: Inhibition of contractions in isolated rat bladder strips; type: cell-based
Description: Sprague-Dawley rats (150-200 g) are rendered unconscious by CO2 asphyxiation and then euthanized by cervical dislocation. […] The bladder is opened and then cut into strips 1-2 mm in width and 7-10 mm in length. The strips are subsequently suspended in a 10 mL tissue bath under an initial resting tension of 1.5 g. The strips are held in place by two surgical clips one of which is attached to a fixed hook while the other is attached to an isometric force transducer. […] The carbachol is then washed out and the tissue allowed to relax to its resting level of activity. Following a further 30 min period of recovery an additional 15 mM KCl are introduced into the tissue bath. […] Following stabilization of this enhanced level of contractile activity, incremental increases in the concentration of test compound or vehicle are introduced into the tissue bath. Contractile activity is measured for each compound or vehicle concentration during the last minute of a 30 minute challenge.

[3] = target: T1, calcium-dependent large conductance potassium channels (maxi K^+) (Rattus norvegicus, UniProt Q62976); assay: Potassium channel activation, whole cell patch clamp in isolated rat detrusor cells; type: cell-based; details: 10 μM in superfusate; isolated rat bladder cells
T1 construct: endogenous in cells; host or cells: freshly isolated rat detrusor (urinary bladder smooth muscle) cells
T1 sequence (Q62976 whole entry): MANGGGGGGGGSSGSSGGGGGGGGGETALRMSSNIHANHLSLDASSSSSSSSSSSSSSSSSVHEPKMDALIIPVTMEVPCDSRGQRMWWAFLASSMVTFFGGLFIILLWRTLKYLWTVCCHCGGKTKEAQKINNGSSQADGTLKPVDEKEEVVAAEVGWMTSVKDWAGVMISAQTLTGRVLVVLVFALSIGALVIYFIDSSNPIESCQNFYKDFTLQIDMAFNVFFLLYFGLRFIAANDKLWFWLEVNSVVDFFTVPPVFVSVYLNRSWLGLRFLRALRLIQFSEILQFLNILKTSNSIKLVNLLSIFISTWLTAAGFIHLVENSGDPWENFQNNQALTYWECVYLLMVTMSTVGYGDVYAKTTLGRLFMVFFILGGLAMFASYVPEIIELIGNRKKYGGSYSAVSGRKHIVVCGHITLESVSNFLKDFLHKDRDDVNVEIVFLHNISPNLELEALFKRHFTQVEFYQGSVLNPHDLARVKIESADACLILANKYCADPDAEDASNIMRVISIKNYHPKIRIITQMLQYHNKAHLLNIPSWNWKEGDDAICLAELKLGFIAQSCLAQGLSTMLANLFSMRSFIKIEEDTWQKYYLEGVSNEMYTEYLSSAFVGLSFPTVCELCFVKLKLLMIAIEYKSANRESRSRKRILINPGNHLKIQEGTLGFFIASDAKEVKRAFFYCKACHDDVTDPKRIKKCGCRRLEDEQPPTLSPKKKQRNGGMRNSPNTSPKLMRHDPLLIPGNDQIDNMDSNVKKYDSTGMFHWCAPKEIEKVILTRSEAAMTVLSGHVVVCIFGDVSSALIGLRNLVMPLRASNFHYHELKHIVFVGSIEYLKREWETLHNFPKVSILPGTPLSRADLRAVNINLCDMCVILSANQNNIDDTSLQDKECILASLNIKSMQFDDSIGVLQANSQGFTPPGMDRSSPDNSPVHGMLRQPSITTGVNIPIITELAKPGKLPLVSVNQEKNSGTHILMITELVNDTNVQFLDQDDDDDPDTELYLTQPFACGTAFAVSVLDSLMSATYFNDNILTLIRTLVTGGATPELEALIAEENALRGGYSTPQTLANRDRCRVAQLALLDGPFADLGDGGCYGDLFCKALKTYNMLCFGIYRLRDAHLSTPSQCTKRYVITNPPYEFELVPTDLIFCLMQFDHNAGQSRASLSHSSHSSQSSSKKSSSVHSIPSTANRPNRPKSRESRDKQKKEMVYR
T1 sequence (P97678 whole entry partner): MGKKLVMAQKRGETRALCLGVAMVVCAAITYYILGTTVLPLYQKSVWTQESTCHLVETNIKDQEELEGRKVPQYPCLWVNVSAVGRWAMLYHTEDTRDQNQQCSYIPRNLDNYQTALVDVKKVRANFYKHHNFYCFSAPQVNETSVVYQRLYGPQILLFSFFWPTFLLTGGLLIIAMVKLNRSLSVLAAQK
Description: Potassium channel activation by compounds of the present invention was established by examining the effect of the compound of Example 1 on calcium-dependent large conductance potassium channels (maxi K^+) as follows:
Rat detrusor cells were isolated in a manner previously described for guinea-pig detrusor (Sheldon and Argentieri, 1995). Male Sprague-Dawley rats (200-400 grams) were euthanized by CO2 inhalation and exsanguination. Their urinary bladders were rapidly removed and placed in 37° C. physiological solution with the following composition (mM): Na glutamate (80.0), NaCl (54.7), KCl (5.0), NaHCO3 (25.0), MgCl2.2H2 O (2.5), D-glucose (11.8) and CaCl2 (0.2) gassed with CO2 --O2, 95%/5% for a final pH of 7.4. The dome of the bladder was isolated from the trigon region and the mucosa was removed. This tissue was then cut into 2-3 mm wide strips and placed in fresh buffer for 1 hour. Tissues were then transferred into 10.0 ml of an isolation buffer containing the above composition plus collagenase type VIII (1.0 mg/ml) and pronase (0.25 mg/ml). After 10 minutes the isolation buffer was replaced with fresh isolation buffer for an additional 10 min. […]
Whole cell recordings were made using broken patch assess. […] After stability was achieved control currents were recorded. […] Currents were recorded for 5 to 10 minutes or until compound effects reached steady state. […]

[4] = test system: Aorta; assay: Inhibition of contractions in aorta (indication of selectivity); type: cell-based

Structure (SMILES): C/C(=C\c1ccc(C(F)(F)F)cc1)C(=O)Nc1ccccc1C(=O)[O-].[Li+] [Example 1, Step 4, (E)-2-[2-Methyl-3-(4-trifluoromethyl-phenyl)-acryloylamino]-benzoic acid lithium salt]
- % blockade 20 μM [1]: 67%
- IC50 ([2]; contractions enhanced by additional 15 mM KCl, isolated rat bladder strips, read-out: IC50 /μM Bladder (B)): 1.07 ± 0.37 µM
- IC50 (A)/ IC50 (B) ([2]; ratio aorta/bladder, indication of selectivity): 39.6
- effect on outward current [3]: increase in outward current that was reversible upon washout
- IC50 [4]: 41.9 ± 8.4 µM
